Data reported in publication PMC3914206.

Legend:
Type in all cases: binding
Settings in all cases: Compound Concentration 10 µM
[1] = target: T1, panel of 442 kinases (Homo sapiens, UniProt Q06187)
T1 construct: purchased KINOMEscan
Text: (§1) We assessed the selectivity of members of this scaffold using the KINOMEscan methodology across a near comprehensive panel of 442 kinases [[18,27]].

[2] = target: T2, panel of 442 kinases (Homo sapiens, UniProt P30530)
T2 construct: purchased KINOMEscan
T2 sequence (P30530 26-894): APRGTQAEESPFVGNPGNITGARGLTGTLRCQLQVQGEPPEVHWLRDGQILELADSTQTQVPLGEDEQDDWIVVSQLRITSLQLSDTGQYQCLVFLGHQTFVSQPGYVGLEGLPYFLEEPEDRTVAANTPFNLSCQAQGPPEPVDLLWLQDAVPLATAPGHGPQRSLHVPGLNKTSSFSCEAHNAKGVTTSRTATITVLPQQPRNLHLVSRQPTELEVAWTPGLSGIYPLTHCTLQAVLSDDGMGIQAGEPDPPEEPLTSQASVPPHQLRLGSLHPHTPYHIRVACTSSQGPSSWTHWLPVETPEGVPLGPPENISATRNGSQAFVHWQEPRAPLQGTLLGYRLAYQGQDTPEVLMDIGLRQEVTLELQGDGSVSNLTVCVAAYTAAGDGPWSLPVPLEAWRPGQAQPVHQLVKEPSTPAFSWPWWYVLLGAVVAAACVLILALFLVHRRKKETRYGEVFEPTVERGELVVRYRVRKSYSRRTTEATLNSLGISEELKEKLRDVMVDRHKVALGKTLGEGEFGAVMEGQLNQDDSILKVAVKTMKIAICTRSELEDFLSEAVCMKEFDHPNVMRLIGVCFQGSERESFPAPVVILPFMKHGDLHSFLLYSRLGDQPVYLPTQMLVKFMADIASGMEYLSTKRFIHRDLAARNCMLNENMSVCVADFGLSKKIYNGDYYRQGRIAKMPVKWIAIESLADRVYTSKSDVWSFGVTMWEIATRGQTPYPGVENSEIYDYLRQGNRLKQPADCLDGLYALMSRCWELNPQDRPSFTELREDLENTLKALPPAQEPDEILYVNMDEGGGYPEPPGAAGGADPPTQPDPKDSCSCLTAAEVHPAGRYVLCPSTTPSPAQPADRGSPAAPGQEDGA
Text: as §1

[3] = target: T3, panel of 442 kinases (Homo sapiens, UniProt P11802)
T3 construct: purchased KINOMEscan
T3 sequence (P11802 whole entry): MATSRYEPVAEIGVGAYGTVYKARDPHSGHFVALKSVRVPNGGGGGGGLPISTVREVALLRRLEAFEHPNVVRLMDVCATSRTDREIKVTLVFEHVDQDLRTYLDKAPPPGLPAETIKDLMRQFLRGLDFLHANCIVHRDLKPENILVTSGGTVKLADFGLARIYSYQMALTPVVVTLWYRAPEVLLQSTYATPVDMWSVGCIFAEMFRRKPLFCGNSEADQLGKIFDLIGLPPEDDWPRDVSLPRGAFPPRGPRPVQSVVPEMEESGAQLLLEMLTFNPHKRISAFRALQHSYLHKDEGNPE
Text: as §1

T1 sequence (Q06187 whole entry): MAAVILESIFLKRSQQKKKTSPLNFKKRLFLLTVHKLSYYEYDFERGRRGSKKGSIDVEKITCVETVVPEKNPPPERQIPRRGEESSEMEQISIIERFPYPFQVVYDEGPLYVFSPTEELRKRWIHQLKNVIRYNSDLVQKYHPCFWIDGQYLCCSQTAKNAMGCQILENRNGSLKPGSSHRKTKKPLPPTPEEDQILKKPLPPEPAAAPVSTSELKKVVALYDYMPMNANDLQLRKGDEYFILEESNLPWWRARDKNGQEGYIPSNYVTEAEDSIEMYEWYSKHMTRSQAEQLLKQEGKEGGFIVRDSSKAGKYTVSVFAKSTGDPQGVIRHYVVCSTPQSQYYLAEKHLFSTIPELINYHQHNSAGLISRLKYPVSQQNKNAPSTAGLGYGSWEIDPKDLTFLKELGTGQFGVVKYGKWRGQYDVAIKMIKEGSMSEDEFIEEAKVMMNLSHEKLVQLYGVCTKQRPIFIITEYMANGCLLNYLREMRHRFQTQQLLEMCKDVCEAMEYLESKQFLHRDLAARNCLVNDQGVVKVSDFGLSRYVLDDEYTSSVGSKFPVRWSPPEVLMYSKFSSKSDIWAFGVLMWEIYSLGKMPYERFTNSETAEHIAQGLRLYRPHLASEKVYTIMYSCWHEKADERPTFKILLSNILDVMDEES

Row | SMILES | KINOMEscan: BTK [1] | KINOMEscan: AXL [2] | KINOMEscan: CDK4-cyclinD1 [3] | KINOMEscan: CDK4-cyclinD3 [3]
1 | COc1cc(C(=O)N2CCC(N3CCN(C)CC3)CC2)ccc1Nc1ncc2c(n1)N(C1CCCC1)c1ccccc1C(=O)N2C [Compound 25, 11-cyclopentyl-2-((2-methoxy-4-(4-(4-methylpiperazin-1-yl)piperidine-1-carbonyl)phenyl)amino)-5-methyl-5H-benzo[e]pyrimido[5,4-b][1,4]diazepin-6(11H)-one] | 98 | 100 | 100 | 73
2 | COc1cc(C(=O)N2CCC(N3CCN(C)CC3)CC2)ccc1Nc1ncc2c(n1)N(C)c1ccccc1C(=O)N2C [15 (LRRK2-IN-1)] | 100 | 100 | 100 | 100
3 | CCOc1cc(C(=O)N2CCC(N3CCN(C)CC3)CC2)ccc1Nc1ncc2c(n1)N(C1CCCC1)c1ccccc1C(=O)N2C [Compound 26] | 100 | 93 | 91 | 100
